Source: publication PMC8268987, “In Search of Effective Anticancer Agents—Novel Sugar Esters Based on Polyhydroxyalkanoate Monomers” (International Journal of Molecular Sciences, 2021)
Where two headings read alike, the source gives them in different places. Values belong to the compound of their own block, whether it stands above or below them.

What was measured:
[1] = system: PNT2 prostate epithelium cells; test: MTT cytotoxicity assay, PNT2 (control)
Experimental: (§3) The following cell lines were used: human prostate cancer cells from metastases to the brain DU145 (ATCC® HTB-81™, Manassas, Virginia); healthy human prostate epithelial cell line as a control (PNT2; Sigma-Aldrich, Darmstadt, Germany); human melanoma Hs 294T (ATCC® HTB-140™, Manassas, Virginia); human epidermal keratinocytes (HaCaT) HEK001 (ATCC® CRL-2404™, Manassas, Virginia); and normal human skin fibroblasts BJ (ATCC® CRL2522™) as controls. The cells were cultured in 37 °C with humidified atmosphere enriched with 5% CO2 in appropriate cell culture media: DMEM F12Ham (Sigma-Aldrich, Darmstadt, Germany) + 5% FBS (Thermo Fisher Scientific; Gibco; Waltham, MA, USA); RPMI-1640 (Sigma-Aldrich, Darmstadt, Germany) + 10% FBS (Thermo Fisher Scientific; Gibco; Waltham, MA, USA); DMEM high glucose (Sigma-Aldrich) + 10% FBS (Thermo Fisher Scientific; Gibco; Waltham, MA, USA); DMEM low glucose (Sigma-Aldrich, Darmstadt, Germany) + 10% FBS (Thermo Fisher Scientific; Gibco; Waltham, MA, USA). All media contained a penicillin/streptomycin (Sigma-Aldrich, Darmstadt, Germany) cocktail.
(§4) For the determination of the cytotoxic effect of tested compounds, normal (control) and cancer cell lines cells were tested at a concentration of 2.5 × 10^4 cells cm^–^2 in appropriate culture medium into 96 well microplates (VWR, Radnor, PA, USA). Cells were preincubated with four different concentrations of tested compounds: 0.5, 0.25, 0.125 and 0.0625 mg mL^–1 for 24 h, 72 h and 120 h in cell incubator. After the incubation, MTT labelling reagent (final concentration 0.5 mg mL^–1) and solubilizing solution were added according to the protocol. The samples absorbance was measured using a microplate reader (Multiscan FC; Thermo Fisher Scientific, Waltham, MA, USA) by 570 nm wavelength, 620 nm for reference.

[2] = system: HTB140 human skin melanoma cells; test: MTT cytotoxicity assay, HTB140
Experimental: as §3, §4

[3] = system: HSF human skin fibroblasts; test: MTT cytotoxicity assay, HSF (control); conditions: 72 h
Experimental: as §3, §4

[4] = system: DU145 prostate cancer cells; test: MTT cytotoxicity assay, DU145
Experimental: as §3, §4

[5] = system: HaCAT human skin keratynocytes; test: MTT cytotoxicity assay, HaCAT (control); conditions: 72 h
Experimental: as §3, §4

[6] = system: HaCAT human skin keratynocytes
Experimental: as §3, §4

[7] = system: HSF human skin fibroblasts
Experimental: as §3, §4

HTB140 cells [8] = test: Nuclei roundness by image analysis, HTB140; format: cell-based, human; conditions: 0.0625 mg mL^–1; for nuclei circularity index: HTB140, after the first 24 h
Experimental: (§1) Cellular studies 12-well plates were used, cell density 3 × 10^5 per well. After 24 h and 48 h of incubation with tested compounds (0.0625 mg mL^–1), the samples were fixed according to standard protocol. Tubulin (green; AlexaFluor-488 mouse anti-β-tubulin IgG; BD Biosciences, San Jose, CA, USA, Pharminogen; cat. 558605), vimentin (infra-red; I: rabbit-anti-vimentin IgG; GeneTex, Irvine, CA, USA; GTX100619; II: chicken-anti-rabbit-AlexaFluor647 IgG; ThermoFisher, Waltham, MA, USA) and counterstained nuclei (blue; Hoechst 33258; Sigma-Aldrich, Darmstadt, Germany) and F-actin (red; AlexaFluor546-phalloidin; ThermoFisher, Waltham, MA, USA). Next, the samples were washed 5 times with deionized water and prepared for imaging with Fluorescent Mounting Medium (Dako Omnis, Agilent, Santa Clara, CA, USA). Microscopic measurements and observations were carried out with the use of fluorescent techniques performed on Zeiss Axio Observer Z.1 microscope with LSM 710 module (Carl Zeiss Microscopy GmbH Carl-Zeiss-Promenade 10, 07745 Jena, Germany). Image acquisition, processing, deconvolution and analysis were performed using Zeiss ZEN Black software ver. 8.1.0.484 and FluoRender 2.21.0. An oil immersion 40×/NA:1.4 lens was used for observations. Parameters used for acquisition of cell morphology were: nucleus—blue channel (405 nm); microtubular network—green channel (488 nm); Actin—red channel (546 nm); vimentin—far red channel (647 nm).

[9] = system: normal (control) and cancer cell lines; test: MTT cytotoxicity assay, summary statements over the tested cell lines; format: cell-based, human; conditions: data not shown
[10] = system: Jurkat (Human T-cell leukemia); set-up: method as in doi:10.1002/app.47192, PMID 29904629; conditions: cited from earlier work
DU145 cells [11] = test: Nuclei roundness by image analysis, DU145; format: cell-based, human; conditions: DU145, after 48 h, 0.0625 mg mL^–1
Experimental: as §1, with “Parameters used for acquisition of cell morphology were: nucleus—blue channel (405 nm); microtubular network—green channel (488 nm); Actin—red channel (546 nm); vimentin—far red channel (647 nm).” left out

DU145 cells [12] = test: Transmigration assay (Boyden's chamber), DU145; format: cell-based, human; conditions: DU145, 96 h, 0.0625 mg mL^–1, transmigration/proliferation ratio relative to sugar control
Experimental: (§2) Transmigration assay was performed using 24-well glass-bottom plate (Eppendorf) containing microporous membranes in Boyden’s chamber (Corning; pore diameter: 8 μm; membrane diameter: 6.5 mm). Native DU145 and HTB140 cells were seeded at density of 3 × 10^5 cells per membrane with tested compounds (0.0625 mg mL^–1) and left for 48 and 96 h for transmigration. The transmigrating cells were fixed with 3.7% formaldehyde and counted. The result is presented as a reference to the rate of cell proliferation in the corresponding compound.

HTB140 cells [13] = test: Transmigration assay (Boyden's chamber), HTB140; format: cell-based, human; conditions: HTB140, 96 h, 0.0625 mg mL^–1, relative to sugar control
Experimental: as §2

- IC50 [6]: 1560 µM
- IC50 [7]: 1560 µM
Compound: galactose nonanoic ester [C9-gal]
- IC50 ([1]; PNT2, 24 h): 2390 µM
- IC50 ([1]; PNT2, 72 h): 1230 µM
- IC50 ([1]; PNT2, 120 h): 2360 µM
- IC50 ([2]; HTB140, 24 h): 1660 µM
- IC50 ([2]; HTB140, 72 h): 1560 µM
- IC50 ([2]; HTB140, 120 h): 1560 µM
- IC50 [3]: 1560 µM
- IC50 ([4]; DU145, 24 h): 1560 µM
- IC50 ([4]; DU145, 72 h): 780 µM
- IC50 ([4]; DU145, 120 h): 1560 µM
- IC50 [5]: 1560 µM

- IC50 [6]: 1430 µM
Compound: mixture of (3R)-hydroxynonanoate glucose esters and (3R)-hydroxyheptanoate glucose esters [mPHN-glu]

Compound: OC[C@H]1OC(O)[C@H](O)[C@@H](O)[C@@H]1O (stereo partly drawn) [glu, α-D-glucopiranose, reference compound]
- nuclei circularity index (HTB140 cells [8]): smallest round nuclei
- cytotoxicity in the MTT test (in words) [9]: low cytotoxicity

Compound: octanoic acid glucose ester
- IC50 [10]: 120 µM

Compound: lactose nonanoic ester [C9-lac]
- change of nuclei roundness (DU145 cells [11]): decrease in nucleus roundness index
- reduction of transmigration (DU145 cells [12]): 25%
- decrease of transmigration (HTB140 cells [13]): 16%
- nuclei circularity index (HTB140 cells [8]): highest circularity index
- change of nuclei shape (decrease in roundness index) (HTB140 cells [8]; HTB140, after the next 24 h (48 h)): biggest change
- IC50 ([1]; PNT2, 24 h): 1710 µM
- IC50 ([1]; PNT2, 72 h): 920 µM
- IC50 ([1]; PNT2, 120 h): 1740 µM
- IC50 ([1]; read-out: Cytotoxicity of SFAE determined by MTT assay (IC50), Supplementary Table 2, PNT2, 24 h, standard deviation on line d below): 1710 µM
- IC50 ([1]; read-out: Cytotoxicity of SFAE determined by MTT assay (IC50), Supplementary Table 2, PNT2, 120 h, standard deviation on line d below): 1740 µM
- IC50 ([2]; HTB140, 24 h): 620 µM
- IC50 ([2]; HTB140, 72 h): 920 µM
- IC50 ([2]; HTB140, 120 h): 810 µM
- IC50 ([2]; read-out: Cytotoxicity of SFAE determined by MTT assay (IC50), Supplementary Table 2, HTB 140, 24 h, standard deviation on line d below): 622 µM
- IC50 ([2]; read-out: Cytotoxicity of SFAE determined by MTT assay (IC50), Supplementary Table 2, HTB 140, 120 h, standard deviation on line d below): 805 µM
- IC50 [3]: 920 µM
- IC50 ([4]; DU145, 24 h): 920 µM
- IC50 ([4]; DU145, 72 h): 840 µM
- IC50 ([4]; DU145, 120 h): 460 µM
- IC50 ([4]; read-out: Cytotoxicity of SFAE determined by MTT assay (IC50), Supplementary Table 2, DU145, 72 h, standard deviation on line d below): 837 µM
- IC50 ([4]; read-out: Cytotoxicity of SFAE determined by MTT assay (IC50), Supplementary Table 2, DU145, 120 h, standard deviation on line d below): 460 µM
- IC50 [5]: 920 µM

Compound: O=C[C@H](O)[C@@H](O)[C@@H](O)[C@H](O)CO [gal, β-d-galactopyranose, reference compound]
- nuclei circularity index (HTB140 cells [8]): smallest round nuclei
- cytotoxicity in the MTT test (in words) [9]: low cytotoxicity
